Experiments:
Experiment in all cases: KINOMEscan competition binding
Conditions in all cases: compound 10.0 µM
MAPK6 (human) = MAPK6 (human) (UniProt Q16659)
PHKG1 (human) = PHKG1 (human) (UniProt Q16816)
TLK1 (human) = TLK1 (human) (UniProt Q9UKI8)
[1] = molecular target: JAK3 JH1 catalytic (human) (UniProt P52333)
ACVR2A (human) = ACVR2A (human) (UniProt P27037)
IGF1R (human) = IGF1R (human) (UniProt P08069)
FGR (human) = FGR (human) (UniProt P09769)
PAK7 (human) = PAK7 (human) (UniProt Q9P286)
[2] = molecular target: JAK1 JH2 pseudokinase (human) (UniProt P23458)
MAPK15 (human) = MAPK15 (human) (UniProt Q8TD08)
PIK3CB (human) = PIK3CB (human) (UniProt P42338)
RAF1 (human) = RAF1 (human) (UniProt P04049)
Chain of RAF1 (human) (P04049 whole entry, looked up): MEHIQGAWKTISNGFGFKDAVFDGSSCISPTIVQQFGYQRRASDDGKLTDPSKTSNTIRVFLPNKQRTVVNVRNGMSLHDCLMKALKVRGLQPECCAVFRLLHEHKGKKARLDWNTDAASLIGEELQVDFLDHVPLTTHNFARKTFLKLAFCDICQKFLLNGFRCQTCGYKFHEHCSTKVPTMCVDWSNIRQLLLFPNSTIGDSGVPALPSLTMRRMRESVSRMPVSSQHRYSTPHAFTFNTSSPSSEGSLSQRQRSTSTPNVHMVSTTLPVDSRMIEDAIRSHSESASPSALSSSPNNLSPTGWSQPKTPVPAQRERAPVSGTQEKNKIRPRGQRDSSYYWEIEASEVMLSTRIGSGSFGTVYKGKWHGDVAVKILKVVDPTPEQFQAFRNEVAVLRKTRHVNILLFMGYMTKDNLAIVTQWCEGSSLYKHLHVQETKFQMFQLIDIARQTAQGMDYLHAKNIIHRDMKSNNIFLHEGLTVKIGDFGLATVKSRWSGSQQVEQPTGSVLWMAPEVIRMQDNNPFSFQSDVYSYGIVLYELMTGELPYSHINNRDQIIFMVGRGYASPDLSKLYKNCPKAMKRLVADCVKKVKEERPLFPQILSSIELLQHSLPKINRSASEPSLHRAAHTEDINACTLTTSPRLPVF

MELK (human) = MELK (human) (UniProt Q14680)
PRKCQ (human) = PRKCQ (human) (UniProt Q04759)
PDGFRA (human) = PDGFRA (human) (UniProt P16234)
NTRK1 (human) = NTRK1 (human) (UniProt P04629)
WEE1 (human) = WEE1 (human) (UniProt P30291)
CDC42BPG (human) = CDC42BPG (human) (UniProt Q6DT37)
TEK (human) = TEK (human) (UniProt Q02763)
ERBB4 (human) = ERBB4 (human) (UniProt Q15303)
STK36 (human) = STK36 (human) (UniProt Q9NRP7)
CSK (human) = CSK (human) (UniProt P41240)
Chain of CSK (human) (P41240 whole entry, looked up): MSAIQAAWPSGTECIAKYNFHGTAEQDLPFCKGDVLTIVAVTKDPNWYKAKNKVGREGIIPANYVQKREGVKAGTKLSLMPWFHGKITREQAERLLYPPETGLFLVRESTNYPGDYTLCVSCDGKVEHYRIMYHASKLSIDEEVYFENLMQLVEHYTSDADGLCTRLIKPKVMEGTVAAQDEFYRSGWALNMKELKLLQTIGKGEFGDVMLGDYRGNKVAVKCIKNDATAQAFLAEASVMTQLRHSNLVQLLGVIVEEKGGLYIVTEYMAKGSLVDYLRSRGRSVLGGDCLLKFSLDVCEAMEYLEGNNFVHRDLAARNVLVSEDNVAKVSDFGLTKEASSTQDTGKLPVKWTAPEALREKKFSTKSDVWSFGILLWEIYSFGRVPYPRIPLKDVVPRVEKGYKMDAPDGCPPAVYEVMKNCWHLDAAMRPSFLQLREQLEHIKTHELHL

MAP2K4 (human) = MAP2K4 (human) (UniProt P45985)
MST4 (human) = MST4 (human) (UniProt Q9P289)
IKBKE (human) = IKBKE (human) (UniProt Q14164)
NEK7 (human) = NEK7 (human) (UniProt Q8TDX7)
NUAK1 (human) = NUAK1 (human) (UniProt O60285)
Chain of NUAK1 (human) (O60285 whole entry, looked up): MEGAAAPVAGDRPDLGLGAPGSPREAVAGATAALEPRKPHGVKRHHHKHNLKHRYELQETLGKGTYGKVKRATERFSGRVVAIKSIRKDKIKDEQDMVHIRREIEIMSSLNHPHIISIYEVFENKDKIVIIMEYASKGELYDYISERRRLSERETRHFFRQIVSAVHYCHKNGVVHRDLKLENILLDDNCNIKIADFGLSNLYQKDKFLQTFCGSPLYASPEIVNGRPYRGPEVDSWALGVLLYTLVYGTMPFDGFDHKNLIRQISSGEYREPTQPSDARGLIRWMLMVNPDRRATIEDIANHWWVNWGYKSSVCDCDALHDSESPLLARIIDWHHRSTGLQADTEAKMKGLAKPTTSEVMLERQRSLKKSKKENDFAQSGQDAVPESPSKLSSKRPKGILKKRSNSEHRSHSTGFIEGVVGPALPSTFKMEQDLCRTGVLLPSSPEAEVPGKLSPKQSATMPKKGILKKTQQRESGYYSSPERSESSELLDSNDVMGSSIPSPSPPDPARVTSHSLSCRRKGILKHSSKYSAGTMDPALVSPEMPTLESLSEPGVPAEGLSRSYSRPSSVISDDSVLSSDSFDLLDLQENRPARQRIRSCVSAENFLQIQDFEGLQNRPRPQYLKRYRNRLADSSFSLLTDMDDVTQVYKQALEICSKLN

RIPK2 (human) = RIPK2 (human) (UniProt O43353)
Chain of RIPK2 (human) (O43353 whole entry, looked up): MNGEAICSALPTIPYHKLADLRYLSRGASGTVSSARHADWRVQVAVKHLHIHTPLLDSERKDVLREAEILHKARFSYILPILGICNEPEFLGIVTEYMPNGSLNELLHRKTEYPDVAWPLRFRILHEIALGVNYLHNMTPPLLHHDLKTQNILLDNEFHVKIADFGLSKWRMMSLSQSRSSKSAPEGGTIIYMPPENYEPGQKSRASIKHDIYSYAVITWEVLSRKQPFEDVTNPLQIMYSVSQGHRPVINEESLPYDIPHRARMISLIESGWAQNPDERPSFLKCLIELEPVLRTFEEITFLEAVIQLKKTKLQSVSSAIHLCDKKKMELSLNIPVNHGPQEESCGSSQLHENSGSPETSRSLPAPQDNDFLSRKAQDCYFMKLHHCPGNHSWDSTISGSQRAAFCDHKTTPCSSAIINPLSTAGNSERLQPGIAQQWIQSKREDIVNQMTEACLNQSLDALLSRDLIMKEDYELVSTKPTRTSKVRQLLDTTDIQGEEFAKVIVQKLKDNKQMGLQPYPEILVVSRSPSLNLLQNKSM

PIK3C2B (human) = PIK3C2B (human) (UniProt O00750)
BRSK2 (human) = BRSK2 (human) (UniProt Q8IWQ3)
ACVRL1 (human) = ACVRL1 (human) (UniProt P37023)
AKT1 (human) = AKT1 (human) (UniProt P31749)
ZAP70 (human) = ZAP70 (human) (UniProt P43403)
[3] = molecular target: JAK2 JH1 catalytic (human) (UniProt O60674)
NEK6 (human) = NEK6 (human) (UniProt Q9HC98)
PRKG2 (human) = PRKG2 (human) (UniProt Q13237)
STK3 (human) = STK3 (human) (UniProt Q13188)
PRKCD (human) = PRKCD (human) (UniProt Q05655)
TNIK (human) = TNIK (human) (UniProt Q9UKE5)
INSR (human) = INSR (human) (UniProt P06213)
Chain of INSR (human) (P06213 whole entry, looked up): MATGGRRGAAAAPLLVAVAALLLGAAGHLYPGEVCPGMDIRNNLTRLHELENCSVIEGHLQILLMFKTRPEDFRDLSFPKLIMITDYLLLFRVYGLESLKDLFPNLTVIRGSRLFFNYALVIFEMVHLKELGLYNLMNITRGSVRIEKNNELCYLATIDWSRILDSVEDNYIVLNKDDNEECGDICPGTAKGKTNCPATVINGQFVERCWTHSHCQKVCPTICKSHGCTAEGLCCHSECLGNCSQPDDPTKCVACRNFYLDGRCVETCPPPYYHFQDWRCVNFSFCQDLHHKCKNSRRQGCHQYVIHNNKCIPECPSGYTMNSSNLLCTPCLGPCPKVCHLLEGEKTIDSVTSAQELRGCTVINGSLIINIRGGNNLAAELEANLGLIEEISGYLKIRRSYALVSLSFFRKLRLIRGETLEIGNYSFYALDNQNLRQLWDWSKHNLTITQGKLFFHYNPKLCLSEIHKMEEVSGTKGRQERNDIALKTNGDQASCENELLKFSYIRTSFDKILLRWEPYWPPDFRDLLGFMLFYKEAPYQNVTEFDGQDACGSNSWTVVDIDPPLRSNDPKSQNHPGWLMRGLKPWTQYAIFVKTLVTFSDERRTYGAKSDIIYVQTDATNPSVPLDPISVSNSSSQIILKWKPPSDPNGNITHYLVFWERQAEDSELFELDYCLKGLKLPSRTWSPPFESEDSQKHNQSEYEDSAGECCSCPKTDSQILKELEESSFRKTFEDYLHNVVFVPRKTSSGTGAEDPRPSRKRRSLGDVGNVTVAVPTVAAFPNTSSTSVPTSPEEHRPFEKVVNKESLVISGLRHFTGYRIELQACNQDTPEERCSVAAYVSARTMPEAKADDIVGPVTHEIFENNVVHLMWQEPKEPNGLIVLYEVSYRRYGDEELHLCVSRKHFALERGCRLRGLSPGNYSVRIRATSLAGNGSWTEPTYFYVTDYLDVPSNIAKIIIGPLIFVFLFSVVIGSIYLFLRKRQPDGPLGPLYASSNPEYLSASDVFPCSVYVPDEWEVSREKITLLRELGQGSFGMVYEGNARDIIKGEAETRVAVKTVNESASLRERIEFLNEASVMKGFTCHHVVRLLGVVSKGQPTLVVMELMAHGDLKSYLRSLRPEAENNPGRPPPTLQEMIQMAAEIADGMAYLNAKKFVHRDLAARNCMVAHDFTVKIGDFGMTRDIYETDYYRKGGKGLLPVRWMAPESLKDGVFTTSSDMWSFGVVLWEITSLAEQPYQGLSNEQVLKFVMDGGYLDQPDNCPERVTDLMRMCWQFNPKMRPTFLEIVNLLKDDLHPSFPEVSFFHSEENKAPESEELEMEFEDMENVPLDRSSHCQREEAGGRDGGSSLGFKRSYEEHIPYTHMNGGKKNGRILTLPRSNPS

Chain of JAK3 JH1 catalytic (human) (P52333 whole entry, looked up): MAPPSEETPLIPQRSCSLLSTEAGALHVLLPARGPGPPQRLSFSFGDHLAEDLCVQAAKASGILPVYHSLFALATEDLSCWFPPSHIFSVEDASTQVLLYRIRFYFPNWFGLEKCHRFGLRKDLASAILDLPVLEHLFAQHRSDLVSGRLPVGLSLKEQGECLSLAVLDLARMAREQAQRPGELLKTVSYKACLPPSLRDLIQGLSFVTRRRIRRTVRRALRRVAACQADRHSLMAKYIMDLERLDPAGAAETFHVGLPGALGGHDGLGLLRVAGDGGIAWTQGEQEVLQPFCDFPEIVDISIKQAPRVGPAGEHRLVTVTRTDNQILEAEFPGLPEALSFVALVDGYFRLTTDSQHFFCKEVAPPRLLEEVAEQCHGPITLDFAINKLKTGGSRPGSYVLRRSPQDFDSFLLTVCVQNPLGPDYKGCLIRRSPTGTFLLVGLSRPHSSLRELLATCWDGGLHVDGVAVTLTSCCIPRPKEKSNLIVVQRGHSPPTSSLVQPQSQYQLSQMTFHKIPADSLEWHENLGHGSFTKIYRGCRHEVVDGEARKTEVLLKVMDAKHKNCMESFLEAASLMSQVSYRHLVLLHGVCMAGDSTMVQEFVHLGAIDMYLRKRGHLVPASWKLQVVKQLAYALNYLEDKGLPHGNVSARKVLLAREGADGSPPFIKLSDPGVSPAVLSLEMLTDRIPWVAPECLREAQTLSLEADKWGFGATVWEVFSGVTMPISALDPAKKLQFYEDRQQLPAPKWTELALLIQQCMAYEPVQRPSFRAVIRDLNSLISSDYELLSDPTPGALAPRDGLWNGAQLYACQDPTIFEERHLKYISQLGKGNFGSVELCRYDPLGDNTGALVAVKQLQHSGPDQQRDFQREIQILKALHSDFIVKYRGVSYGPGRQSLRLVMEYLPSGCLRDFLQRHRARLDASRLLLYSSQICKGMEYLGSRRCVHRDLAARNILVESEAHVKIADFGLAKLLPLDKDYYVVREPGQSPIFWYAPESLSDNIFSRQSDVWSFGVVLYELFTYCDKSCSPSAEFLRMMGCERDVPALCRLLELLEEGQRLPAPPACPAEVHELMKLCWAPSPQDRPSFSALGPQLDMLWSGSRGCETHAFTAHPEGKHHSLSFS

SMILES: CCC(=O)N1CCN(c2ccc(-n3c(=O)ccc4cnc5ccc(-c6cnc7ccccc7c6)cc5c43)cc2C(F)(F)F)CC1
- kinase still bound, per cent of control (MAPK6 (human)): 1.8%
- kinase still bound, per cent of control (PHKG1 (human)): 100%
- kinase still bound, per cent of control (TLK1 (human)): 100%
- kinase still bound, per cent of control [1]: 100%
- kinase still bound, per cent of control (ACVR2A (human)): 47%
- kinase still bound, per cent of control (IGF1R (human)): 94%
- kinase still bound, per cent of control (FGR (human)): 78%
- kinase still bound, per cent of control (PAK7 (human)): 87%
- kinase still bound, per cent of control [2]: 76%
- kinase still bound, per cent of control (MAPK15 (human)): 79%
- kinase still bound, per cent of control (PIK3CB (human)): 65%
- kinase still bound, per cent of control (RAF1 (human)): 48%
- kinase still bound, per cent of control (MELK (human)): 50%
- kinase still bound, per cent of control (PRKCQ (human)): 91%
- kinase still bound, per cent of control (PDGFRA (human)): 63%
- kinase still bound, per cent of control (NTRK1 (human)): 64%
- kinase still bound, per cent of control (WEE1 (human)): 42%
- kinase still bound, per cent of control (CDC42BPG (human)): 1.6%
- kinase still bound, per cent of control (TEK (human)): 19%
- kinase still bound, per cent of control (ERBB4 (human)): 100%
- kinase still bound, per cent of control (STK36 (human)): 17%
- kinase still bound, per cent of control (CSK (human)): 71%
- kinase still bound, per cent of control (MAP2K4 (human)): 30%
- kinase still bound, per cent of control (MST4 (human)): 89%
- kinase still bound, per cent of control (IKBKE (human)): 87%
- kinase still bound, per cent of control (NEK7 (human)): 90%
- kinase still bound, per cent of control (NUAK1 (human)): 100%
- kinase still bound, per cent of control (RIPK2 (human)): 44%
- kinase still bound, per cent of control (PIK3C2B (human)): 25%
- kinase still bound, per cent of control (BRSK2 (human)): 76%
- kinase still bound, per cent of control (ACVRL1 (human)): 83%
- kinase still bound, per cent of control (AKT1 (human)): 91%
- kinase still bound, per cent of control (ZAP70 (human)): 100%
- kinase still bound, per cent of control [3]: 65%
- kinase still bound, per cent of control (NEK6 (human)): 99%
- kinase still bound, per cent of control (PRKG2 (human)): 78%
- kinase still bound, per cent of control (STK3 (human)): 24%
- kinase still bound, per cent of control (PRKCD (human)): 82%
- kinase still bound, per cent of control (TNIK (human)): 39%
- kinase still bound, per cent of control (INSR (human)): 7.6%

SMILES: COc1cc(C(=O)NC2CCN(C)CC2)ccc1Nc1ncc2c(n1)N(C1CCCC1)C(C)CC(=O)N2C (stereo not given)
- kinase still bound, per cent of control (MAPK6 (human)): 100%
- kinase still bound, per cent of control (PHKG1 (human)): 100%
- kinase still bound, per cent of control (TLK1 (human)): 100%
- kinase still bound, per cent of control [1]: 100%
- kinase still bound, per cent of control (ACVR2A (human)): 100%
- kinase still bound, per cent of control (IGF1R (human)): 32%
- kinase still bound, per cent of control (FGR (human)): 100%
- kinase still bound, per cent of control (PAK7 (human)): 100%
- kinase still bound, per cent of control [2]: 22%
- kinase still bound, per cent of control (MAPK15 (human)): 100%
- kinase still bound, per cent of control (PIK3CB (human)): 100%
- kinase still bound, per cent of control (RAF1 (human)): 100%
- kinase still bound, per cent of control (MELK (human)): 100%
- kinase still bound, per cent of control (PRKCQ (human)): 100%
- kinase still bound, per cent of control (PDGFRA (human)): 100%
- kinase still bound, per cent of control (NTRK1 (human)): 100%
- kinase still bound, per cent of control (WEE1 (human)): 100%
- kinase still bound, per cent of control (CDC42BPG (human)): 100%
- kinase still bound, per cent of control (TEK (human)): 100%
- kinase still bound, per cent of control (ERBB4 (human)): 100%
- kinase still bound, per cent of control (STK36 (human)): 100%
- kinase still bound, per cent of control (CSK (human)): 100%
- kinase still bound, per cent of control (MAP2K4 (human)): 100%
- kinase still bound, per cent of control (MST4 (human)): 100%
- kinase still bound, per cent of control (IKBKE (human)): 100%
- kinase still bound, per cent of control (NEK7 (human)): 100%
- kinase still bound, per cent of control (NUAK1 (human)): 100%
- kinase still bound, per cent of control (RIPK2 (human)): 100%
- kinase still bound, per cent of control (PIK3C2B (human)): 100%
- kinase still bound, per cent of control (BRSK2 (human)): 100%
- kinase still bound, per cent of control (ACVRL1 (human)): 100%
- kinase still bound, per cent of control (AKT1 (human)): 100%
- kinase still bound, per cent of control (ZAP70 (human)): 100%
- kinase still bound, per cent of control [3]: 100%
- kinase still bound, per cent of control (NEK6 (human)): 100%
- kinase still bound, per cent of control (PRKG2 (human)): 100%
- kinase still bound, per cent of control (STK3 (human)): 100%
- kinase still bound, per cent of control (PRKCD (human)): 100%
- kinase still bound, per cent of control (TNIK (human)): 100%
- kinase still bound, per cent of control (INSR (human)): 100%

Source: the kinase profiling compilation of Christmann-Franck et al. (2016)
